# Test system: chondrocytes
# Test: Viability of chondrocytes after exposure (MTT and LDH assays)
# Assay type: cell-based, bovine
# Settings: 15 μl of DEX 4 mg/ml solution per 1 ml well, up to 3 days
# Description: The cartilage samples as described in Example 4 underwent a 1 hour predigestion stage with 0.4% w/v pronase (Sigma, UK), dissolved in 4-(2-hydroxyethyl)-1-piperazineethanesulfonic acid (HEPES)-buffered DMEM (Gibco, UK) supplemented with 50 U/50 mg/mL penicillin-streptomycin (Sigma Aldrich) and 2.5 mg/mL amphotericin B. Cartilages samples were placed in sterile eppendorfs containing the filter-sterilized enzyme solution by passage through a […] filter at a concentration of 1 ml solution for 5 cartilage extracts. The samples were incubated at 37° C. and the cartilage fragments were then washed twice with sterile PBS and digested with 1 ml each 6 cartilage sample of collagenase II (Sigma, UK) 0.1% w/v for 16 h at 37° C. Collagenase II was prepared in 4-(2-hydroxyethyl)-1-piperazineethanesulfonic acid (HEPES)-buffered DMEM (Gibco, UK) supplemented with 50 U/50 mg/mL penicillin-streptomycin (Sigma Aldrich and filter sterilised. […]
# Chondrocytes viability was assessed through MTT and LDH assay kits (Sigma, UK) according to manufacturer's protocols. […]
smiles,measurement,value
"C[C@@H]1C[C@H]2[C@@H]3CCC4=CC(=O)C=C[C@]4(C)[C@@]3(F)[C@@H](O)C[C@]2(C)[C@@]1(O)C(=O)COP(=O)(O)O [DEX-P, dexamethasone phosphate]",chondrocytes viability (MTT and LDH),same viability

# From patent publication US20170209468A1, “POLY(BETA-AMINO ESTER) CONJUGATES FOR CARTILAGE AGENT DELIVERY AND METHODS” (University College Cardiff Consultants Limited, priority 2014, published 2017)
